Reference: patent publication US10758534B2 (Vertex Pharmaceuticals Incorporated, priority 2014, dated 2020)

The compounds below were run against T1, F508del (Homo sapiens, UniProt P13569, DEL508-508) (assay: Protocol 2: FRET membrane potential optical assay (VIPR), identification of correction compounds). Conditions: F508del CFTR modulator activity; compounds of Table 1; read-out: EC30.
T1 construct: expressed in transfected cells
Assay type: cell-based
Outline: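 NIH3T3 mouse fibroblasts stably expressing F508del-CFTR incubated with compound 16 h at 37 °C in serum-free medium, then loaded with CC2-DMPE/DiSBAC2(3) FRET dyes. Channel activated with 10 μM forskolin plus 20 μM genistein in Cl⁻-free (gluconate) bath; depolarisation from Cl⁻ efflux read on VIPR II.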

T1 sequence (P13569 with tags, fused parts or gaps DEL508-508): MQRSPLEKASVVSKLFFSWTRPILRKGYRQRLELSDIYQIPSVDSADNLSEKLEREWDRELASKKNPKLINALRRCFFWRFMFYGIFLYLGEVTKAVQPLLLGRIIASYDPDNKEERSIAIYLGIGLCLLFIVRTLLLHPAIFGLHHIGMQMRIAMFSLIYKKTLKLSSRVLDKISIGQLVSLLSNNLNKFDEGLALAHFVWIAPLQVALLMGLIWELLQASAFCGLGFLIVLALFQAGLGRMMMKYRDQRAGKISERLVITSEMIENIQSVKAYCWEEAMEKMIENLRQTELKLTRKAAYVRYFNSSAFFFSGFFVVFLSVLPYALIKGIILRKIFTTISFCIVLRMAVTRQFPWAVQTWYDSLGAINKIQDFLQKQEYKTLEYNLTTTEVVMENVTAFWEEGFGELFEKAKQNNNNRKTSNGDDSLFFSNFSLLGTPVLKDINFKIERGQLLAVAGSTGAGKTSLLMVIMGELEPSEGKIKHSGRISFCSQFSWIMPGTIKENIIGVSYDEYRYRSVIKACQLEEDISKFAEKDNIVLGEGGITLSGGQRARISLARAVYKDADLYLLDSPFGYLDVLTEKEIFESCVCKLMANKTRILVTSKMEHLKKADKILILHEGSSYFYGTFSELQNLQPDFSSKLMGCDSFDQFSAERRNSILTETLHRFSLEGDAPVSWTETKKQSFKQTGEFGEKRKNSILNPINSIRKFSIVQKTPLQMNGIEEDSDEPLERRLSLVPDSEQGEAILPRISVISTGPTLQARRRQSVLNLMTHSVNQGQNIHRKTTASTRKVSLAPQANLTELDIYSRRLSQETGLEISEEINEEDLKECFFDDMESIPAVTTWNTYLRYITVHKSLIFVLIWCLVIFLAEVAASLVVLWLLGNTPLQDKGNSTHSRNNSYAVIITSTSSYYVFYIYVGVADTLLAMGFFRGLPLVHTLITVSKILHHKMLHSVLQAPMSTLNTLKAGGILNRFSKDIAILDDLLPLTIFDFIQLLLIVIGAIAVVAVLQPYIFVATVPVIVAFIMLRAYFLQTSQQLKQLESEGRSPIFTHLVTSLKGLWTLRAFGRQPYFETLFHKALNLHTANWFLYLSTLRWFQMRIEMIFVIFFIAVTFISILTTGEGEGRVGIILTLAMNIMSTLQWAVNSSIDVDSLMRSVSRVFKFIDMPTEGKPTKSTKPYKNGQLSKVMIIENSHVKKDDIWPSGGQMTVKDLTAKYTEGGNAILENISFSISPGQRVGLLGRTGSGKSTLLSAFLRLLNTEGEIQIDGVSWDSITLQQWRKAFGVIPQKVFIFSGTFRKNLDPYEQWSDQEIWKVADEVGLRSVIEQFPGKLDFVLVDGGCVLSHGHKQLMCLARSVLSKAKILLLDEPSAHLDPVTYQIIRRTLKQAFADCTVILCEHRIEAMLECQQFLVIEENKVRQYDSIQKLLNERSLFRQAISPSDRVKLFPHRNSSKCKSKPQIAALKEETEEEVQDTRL

Row | Compound | EC30
1 | CC(C)[C@@H](C)Oc1nc(N2C[C@@H](C)CC2(C)C)c(C(=O)NS(=O)(=O)c2cccc(N)n2)cc1F [Compound 2020, N-[(6-amino-2-pyridyl)sulfonyl]-6-[(1R)-1,2-dimethylpropoxy]-5-fluoro-2-[(4S)-2,2,4-trimethylpyrrolidin-1-yl]pyridine-3-carboxamide] | < 3 µM
2 | C[C@@H]1CN(c2nc(-c3ccc(C(F)F)cc3)ccc2C(=O)NS(=O)(=O)c2cccnc2N)C(C)(C)C1 [Compound 2644, N-[(2-amino-3-pyridyl)sulfonyl]-6-[4-(difluoromethyl)phenyl]-2-[(4S)-2,2,4-trimethylpyrrolidin-1-yl]pyridine-3-carboxamide] | < 3 µM
3 | CC(C)COc1cc(F)cc(-c2ccc(C(=O)NS(=O)(=O)N3CC(N)CC(F)(F)C3)c(N3C[C@@H](C)CC3(C)C)n2)c1 (stereo partly drawn) [Compound 2209, N-[(5-amino-3,3-difluoro-1-piperidyl)sulfonyl]-6-(3-fluoro-5-isobutoxy-phenyl)-2-[(4S)-2,2,4-trimethylpyrrolidin-1-yl]pyridine-3-carboxamide] | < 3 µM
4 | CC1CN(c2ncccc2C(=O)NS(=O)(=O)c2cccc(Oc3cccc(C(C)C)c3)n2)C(C)(C)C1 (stereo not drawn) [Compound 2108, N—[[6-(3-isopropylphenoxy)-2-pyridyl]sulfonyl]-2-(2,2,4-trimethylpyrrolidin-1-yl)pyridine-3-carboxamide] | < 3 µM
5 | CC1CN(c2ncccc2C(=O)NS(=O)(=O)c2cccc(OCc3ccc(C(C)(C)C)cc3)n2)C(C)(C)C1 (stereo not drawn) [Compound 2286, N—[[6-[(4-tert-butylphenyl)methoxy]-2-pyridyl]sulfonyl]-2-(2,2,4-trimethylpyrrolidin-1-yl)pyridine-3-carboxamide] | < 3 µM
6 | CC1CN(c2ncccc2C(=O)NS(=O)(=O)c2cccc(N(C)CCc3cccnc3)n2)C(C)(C)C1 (stereo not drawn) [Compound 2005, N—[[6-[methyl-[2-(3-pyridyl)ethyl]amino]-2-pyridyl]sulfonyl]-2-(2,2,4-trimethylpyrrolidin-1-yl)pyridine-3-carboxamide] | 3 to 10 µM
7 | CC1CN(c2ncccc2C(=O)NS(=O)(=O)c2cccc(N(C)Cc3ccccc3Cl)n2)C(C)(C)C1 (stereo not drawn) [Compound 2744] | < 3 µM
8 | Cc1ccc(-c2ccc(C(=O)NS(=O)(=O)c3cccnc3N)c(N3C[C@@H](C)CC3(C)C)n2)cc1 [Compound 2132, N-[(2-amino-3-pyridyl)sulfonyl]-6-(p-tolyl)-2-[(4S)-2,2,4-trimethylpyrrolidin-1-yl]pyridine-3-carboxamide] | < 3 µM
9 | CC1CCN(c2cccc(S(=O)(=O)NC(=O)c3cccnc3N3CC(C)CC3(C)C)n2)CC1 (stereo not drawn) [Compound 2330, N—[[6-(4-methyl-1-piperidyl)-2-pyridyl]sulfonyl]-2-(2,2,4-trimethylpyrrolidin-1-yl)pyridine-3-carboxamide] | < 3 µM
10 | CC1CN(c2ncccc2C(=O)NS(=O)(=O)c2cccc(NC(C)C)n2)C(C)(C)C1 (stereo not drawn) [Compound 2200, N—[[6-(isopropylamino)-2-pyridyl]sulfonyl]-2-(2,2,4-trimethylpyrrolidin-1-yl)pyridine-3-carboxamide] | 3 to 10 µM
11 | CC1CN(c2ncccc2C(=O)NS(=O)(=O)c2cccc(Oc3ccc(C#N)cc3)n2)C(C)(C)C1 (stereo not drawn) [Compound 2076, N—[[6-(4-cyanophenoxy)-2-pyridyl]sulfonyl]-2-(2,2,4-trimethylpyrrolidin-1-yl)pyridine-3-carboxamide] | < 3 µM
12 | C[C@@H]1CN(c2nc(-c3cccc(F)c3F)ccc2C(=O)NS(=O)(=O)c2ccc[nH]c2=O)C(C)(C)C1 [Compound 2162, 6-(2,3-difluorophenyl)-N-[(2-oxo-1H-pyridin-3-yl)sulfonyl]-2-[(4S)-2,2,4-trimethylpyrrolidin-1-yl]pyridine-3-carboxamide] | < 3 µM
13 | Cc1cccc(C)c1Oc1nc(-c2cc(F)cc(OCC(C)C)c2)ccc1C(=O)NS(=O)(=O)c1ccc(O)c(N)n1 [Compound 2331, N-[(6-amino-5-hydroxy-2-pyridyl)sulfonyl]-2-(2,6-dimethylphenoxy)-6-(3-fluoro-5-isobutoxy-phenyl)pyridine-3-carboxamide] | < 3 µM
14 | CCC(CC)N1CCN(c2cccc(S(=O)(=O)NC(=O)c3cccnc3N3CC(C)CC3(C)C)n2)CC1 (stereo not drawn) [Compound 2565, N—[[6-[4-(1-ethylpropyl)piperazin-1-yl]-2-pyridyl]sulfonyl]-2-(2,2,4-trimethylpyrrolidin-1-yl)pyridine-3-carboxamide] | 3 to 10 µM
15 | CC(C)COc1cc(F)cc(-c2ccc(C(=O)NS(=O)(=O)c3cccc(N)n3)c(N3CCC[C@H]3C(=O)OC(C)(C)C)n2)c1 [Compound 2204, tert-butyl (2S)-1-[3-[(6-amino-2-pyridyl)sulfonylcarbamoyl]-6-(3-fluoro-5-isobutoxy-phenyl)-2-pyridyl]pyrrolidine-2-carboxylate] | < 3 µM
16 | Cc1cc(F)cc(-c2ccc(C(=O)NS(=O)(=O)c3ccc[nH]c3=O)c(N3C[C@@H](C)CC3(C)C)n2)c1 [Compound 2348, 6-(3-fluoro-5-methyl-phenyl)-N-[(2-oxo-1H-pyridin-3-yl)sulfonyl]-2-[(4S)-2,2,4-trimethylpyrrolidin-1-yl]pyridine-3-carboxamide] | < 3 µM

Same assay, conditions: Table 3; compounds of Table 1 as modulators of CFTR activity; protocol not stated

Row | Compound | EC30
17 | CC(C)Oc1ccc(-c2ccc(C(=O)NS(=O)(=O)c3cccc(N)n3)c(N3CCC4(CCC4)CC3)n2)cn1 [Compound 733, N-[(6-amino-2-pyridyl)sulfonyl]-2-(7-azaspiro[3.5]nonan-7-yl)-6-(6-isopropoxy-3-pyridyl)pyridine-3-carboxamide] | +++ (“+++” means <3 uM)
18 | CNc1cccc(S(=O)(=O)NC(=O)c2cc(C(C)(C)C)nn2Cc2c(C)cc(C)cc2C)c1 [Compound 249, 5-tert-butyl-N-[3-(methylamino)phenyl]sulfonyl-2-[(2,4,6-trimethylphenyl)methyl]pyrazole-3-carboxamide] | +++ (“+++” means <3 uM)
19 | CC(C)COc1cc(F)cc(-c2ccc(C(=O)NS(=O)(=O)c3cccc(N)n3)c(N3[C@@H](C)CC[C@@H]3C)n2)c1 [Compound 458, N-[(6-amino-2-pyridyl)sulfonyl]-2-[(2S,5S)-2,5-dimethylpyrrolidin-1-yl]-6-(3-fluoro-5-isobutoxy-phenyl)pyridine-3-carboxamide] | +++ (“+++” means <3 uM)
20 | CC(C)Oc1ccc(-c2ccc(C(=O)NS(=O)(=O)c3cccc(N)n3)c(N3CCC(C)C(C)(C)C3)n2)cn1 (stereo not drawn) [Compound 435, N-[(6-amino-2-pyridyl)sulfonyl]-6-(6-isopropoxy-3-pyridyl)-2-(3,3,4-trimethyl-1-piperidyl)pyridine-3-carboxamide] | +++ (“+++” means <3 uM)
21 | Cc1cccc(C)c1Cn1nc(-c2ccc(C(F)(F)F)cc2)cc1C(=O)NS(=O)(=O)c1ccccc1 [Compound 316, N-(benzenesulfonyl)-2-[(2,6-dimethylphenyl)methyl]-5-[4-(trifluoromethyl)phenyl]pyrazole-3-carboxamide] | +++ (“+++” means <3 uM)
22 | CC(C)COc1cc(F)cc(-c2ccc(C(=O)NS(=O)(=O)c3cccc(N)n3)c(OC3CCOC3)n2)c1 (stereo not drawn) [Compound 433, N-[(6-amino-2-pyridyl)sulfonyl]-6-(3-fluoro-5-isobutoxy-phenyl)-2-tetrahydrofuran-3-yloxy-pyridine-3-carboxamide] | +++ (“+++” means <3 uM)
23 | CCc1cccc(S(=O)(=O)NC(=O)c2ccc(C(C)(C)C)nc2-c2ccc(C)cc2)c1 [Compound 50, 6-tert-butyl-N-(3-ethylphenyl)sulfonyl-2-(p-tolyl)pyridine-3-carboxamide] | +++ (“+++” means <3 uM)
24 | Cc1cc(C(C)(C)C)cc(C)c1Cn1nc(C(C)(C)C)cc1C(=O)NS(=O)(=O)c1ccccc1 [Compound 443, N-(benzenesulfonyl)-5-tert-butyl-2-[(4-tert-butyl-2,6-dimethyl-phenyl)methyl]pyrazole-3-carboxamide] | + (“+” means greater than 10 uM)
25 | Cc1cc(C)c(Oc2nc(C(C)(C)C)ccc2C(=O)NS(=N)(=O)c2cccc(N)c2)c(C)c1 (stereo not drawn) [Compound 292, N-[(3-Aminophenyl)sulfonimidoyl]-6-tert-butyl-2-(2,4,6-trimethylphenoxy)pyridine-3-carboxamide] | +++ (“+++” means <3 uM)
26 | Cc1cccc(C)c1Cn1nc(-c2ccccc2N(C)C)cc1C(=O)NS(=O)(=O)c1ccccc1 [Compound 128, N-(benzenesulfonyl)-5-[2-(dimethylamino)phenyl]-2-[(2,6-dimethylphenyl)methyl]pyrazole-3-carboxamide] | +++ (“+++” means <3 uM)
27 | COc1ccccc1S(=O)(=O)NC(=O)c1cc2ccccc2n1Cc1c(C)cc(C)cc1C [Compound 183, N-(2-methoxyphenyl)sulfonyl-1-[(2,4,6-trimethylphenyl)methyl]indole-2-carboxamide] | +++ (“+++” means <3 uM)
28 | CN(c1ccccc1)c1nc(C(C)(C)C)ccc1C(=O)NS(=O)(=O)c1cccc(N)c1 [Compound 85, N-(3-aminophenyl)sulfonyl-6-tert-butyl-2-(N-methylanilino)pyridine-3-carboxamide] | ++ (“++” means between 3 uM and 10 uM)
29 | CC(C)Oc1ccc(-c2ccc(C(=O)NS(=O)(=O)c3cccc(N)n3)c(N3CCCC(c4ccc(F)c(F)c4)C3)n2)cn1 (stereo not drawn) [Compound 558, N-[(6-amino-2-pyridyl)sulfonyl]-2-[3-(3,4-difluorophenyl)-1-piperidyl]-6-(6-isopropoxy-3-pyridyl)pyridine-3-carboxamide] | +++ (“+++” means <3 uM)
30 | CC(C)CCOc1cc(F)cc(-c2ccc(C(=O)NS(=O)(=O)c3ccc[nH]c3=O)c(N3[C@H](C)CC[C@@H]3C)n2)c1 [Compound 688, 2-[(2S,5R)-2,5-dimethylpyrrolidin-1-yl]-6-(3-fluoro-5-isopentyloxy-phenyl)-N-[(2-oxo-1H-pyridin-3-yl)sulfonyl]pyridine-3-carboxamide] | +++ (“+++” means <3 uM)
